{"source": "ChEMBL document CHEMBL4152284", "about": "“Novel tetrahydrocarbazole benzyl pyridine hybrids as potent and selective butryl cholinesterase inhibitors with neuroprotective and β-secretase inhibition activities” (Eur J Med Chem, 2018)", "key": {"Acetylcholinesterase [1]": {"target": "T1, Acetylcholinesterase (Torpedo californica, UniProt P04058)", "T1 sequence (P04058 whole entry)": "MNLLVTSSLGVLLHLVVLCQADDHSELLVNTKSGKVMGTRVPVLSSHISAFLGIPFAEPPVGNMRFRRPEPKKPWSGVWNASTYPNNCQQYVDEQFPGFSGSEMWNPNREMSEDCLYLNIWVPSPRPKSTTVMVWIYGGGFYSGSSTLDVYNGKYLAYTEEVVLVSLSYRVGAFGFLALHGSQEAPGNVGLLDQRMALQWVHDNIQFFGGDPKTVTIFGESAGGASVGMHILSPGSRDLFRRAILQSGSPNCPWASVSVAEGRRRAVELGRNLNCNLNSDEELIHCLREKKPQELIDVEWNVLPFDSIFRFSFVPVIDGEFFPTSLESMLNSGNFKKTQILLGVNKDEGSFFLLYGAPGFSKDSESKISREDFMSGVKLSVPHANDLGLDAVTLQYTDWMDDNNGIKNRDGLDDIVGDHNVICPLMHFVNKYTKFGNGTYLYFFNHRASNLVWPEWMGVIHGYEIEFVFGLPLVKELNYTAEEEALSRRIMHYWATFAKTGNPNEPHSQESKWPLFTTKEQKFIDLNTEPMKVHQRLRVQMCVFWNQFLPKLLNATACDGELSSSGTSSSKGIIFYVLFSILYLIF", "assay": "Inhibition of Torpedo californica AChE using acetylthiocholine iodide as substrate preincubated for 10 mins followed by substrate addition measured for 5 mins by Ellman's method", "type": "single protein, Tetronarce californica"}, "Cholinesterase [2]": {"target": "T2, Cholinesterase (Equus caballus, UniProt P81908)", "T2 sequence (P81908 whole entry)": "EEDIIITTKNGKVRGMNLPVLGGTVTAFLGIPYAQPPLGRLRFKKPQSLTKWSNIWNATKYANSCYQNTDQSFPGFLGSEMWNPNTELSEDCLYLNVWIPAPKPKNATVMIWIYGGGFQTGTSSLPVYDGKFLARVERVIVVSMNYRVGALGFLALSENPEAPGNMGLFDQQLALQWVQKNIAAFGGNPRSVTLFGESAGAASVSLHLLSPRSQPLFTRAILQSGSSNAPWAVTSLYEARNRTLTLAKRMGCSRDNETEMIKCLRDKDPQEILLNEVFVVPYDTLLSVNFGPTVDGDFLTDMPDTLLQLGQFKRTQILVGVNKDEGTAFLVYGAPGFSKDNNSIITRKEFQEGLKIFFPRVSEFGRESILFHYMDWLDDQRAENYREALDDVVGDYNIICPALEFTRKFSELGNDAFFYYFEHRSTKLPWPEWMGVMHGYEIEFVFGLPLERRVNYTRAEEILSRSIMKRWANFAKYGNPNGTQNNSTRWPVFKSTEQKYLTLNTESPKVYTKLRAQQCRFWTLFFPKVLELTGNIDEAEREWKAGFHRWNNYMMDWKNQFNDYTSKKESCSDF", "assay": "Inhibition of equine serum BChE using butyrylthiocholine iodide as substrate preincubated for 10 mins followed by substrate addition measured for 5 mins by Ellman's method"}, "[3]": {"assay": "Selectivity index, ratio of IC50 for Torpedo californica AChE to IC50 for equine serum BChE"}, "[4]": {"target": "Cholinesterase (Equus caballus) (UniProt P81908)", "sequence (P81908 whole entry)": "as above", "assay": "Potency index, ratio of donepezil IC50 to test compound IC50 for equine serum BChE"}, "Cholinesterase [5]": {"target": "T2, Cholinesterase", "assay": "Mixed-type inhibition of equine serum BChE using varying levels of butyrylthiocholine iodide as substrate by Lineweaver-burk plot analysis"}, "PC-12": {"tested_on": "PC-12", "assay": "Neuroprotective activity against H2O2-induced cell death in rat PC12 cells assessed as cell viability at 10 uM pretreated for 3 hrs followed by H2O2 addition and measured after 12 hrs by MTT assay relative to control", "type": "functional", "conditions": "read-out: Activity"}, "[6]": {"target": "Beta-secretase 1 (Homo sapiens) (UniProt P56817)", "sequence (P56817 whole entry, the tested form may be a part)": "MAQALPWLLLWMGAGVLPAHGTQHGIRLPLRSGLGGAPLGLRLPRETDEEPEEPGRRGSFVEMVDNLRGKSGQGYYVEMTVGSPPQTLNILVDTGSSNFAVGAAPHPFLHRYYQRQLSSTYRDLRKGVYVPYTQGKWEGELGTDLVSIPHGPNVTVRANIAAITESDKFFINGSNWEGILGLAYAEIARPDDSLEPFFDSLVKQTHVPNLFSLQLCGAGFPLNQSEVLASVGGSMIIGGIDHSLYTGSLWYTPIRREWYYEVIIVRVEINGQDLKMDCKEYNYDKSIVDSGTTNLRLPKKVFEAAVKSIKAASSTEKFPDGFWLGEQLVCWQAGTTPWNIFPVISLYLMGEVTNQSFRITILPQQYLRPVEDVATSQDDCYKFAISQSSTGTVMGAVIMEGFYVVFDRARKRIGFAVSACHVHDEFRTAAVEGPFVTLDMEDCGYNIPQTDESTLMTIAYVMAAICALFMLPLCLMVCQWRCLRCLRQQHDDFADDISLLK", "assay": "Inhibition of recombinant human BACE1 (1 to 460 residues) expressed in baculovirus-infected insect cells at 50 uM using Rh-EVNLDAEFK-quencher as substrate measured after 90 mins by fluorescence assay relative to control"}, "[7]": {"target": "Beta-secretase 1 (Homo sapiens) (UniProt P56817)", "assay": "Inhibition of recombinant human BACE1 (1 to 460 residues) expressed in baculovirus-infected insect cells at 10 uM using Rh-EVNLDAEFK-quencher as substrate measured after 90 mins by fluorescence assay relative to control"}, "[8]": {"target": "Amyloid-beta precursor protein (Homo sapiens) (UniProt P05067)", "sequence (P05067 whole entry)": "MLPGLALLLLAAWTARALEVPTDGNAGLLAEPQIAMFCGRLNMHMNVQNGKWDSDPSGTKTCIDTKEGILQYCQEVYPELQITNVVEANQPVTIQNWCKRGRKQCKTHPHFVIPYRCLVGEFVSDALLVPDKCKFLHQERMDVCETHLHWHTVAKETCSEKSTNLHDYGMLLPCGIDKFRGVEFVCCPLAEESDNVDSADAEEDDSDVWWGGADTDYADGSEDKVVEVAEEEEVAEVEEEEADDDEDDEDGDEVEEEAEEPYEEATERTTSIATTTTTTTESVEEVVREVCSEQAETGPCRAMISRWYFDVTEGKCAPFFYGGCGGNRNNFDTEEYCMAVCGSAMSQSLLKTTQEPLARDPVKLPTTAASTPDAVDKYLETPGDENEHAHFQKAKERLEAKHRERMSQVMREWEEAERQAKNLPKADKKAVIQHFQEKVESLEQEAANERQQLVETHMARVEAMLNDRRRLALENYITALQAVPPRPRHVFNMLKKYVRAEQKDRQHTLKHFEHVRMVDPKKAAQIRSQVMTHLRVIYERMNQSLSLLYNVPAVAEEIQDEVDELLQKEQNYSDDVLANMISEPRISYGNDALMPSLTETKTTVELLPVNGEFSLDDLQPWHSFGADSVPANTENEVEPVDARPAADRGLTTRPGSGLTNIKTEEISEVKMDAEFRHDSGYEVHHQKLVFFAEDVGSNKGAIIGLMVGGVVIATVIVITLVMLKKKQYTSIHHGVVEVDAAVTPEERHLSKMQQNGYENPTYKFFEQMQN", "assay": "Inhibition of HFIP-pretreated amyloid beta (1 to 42) (unknown origin) self-induced aggregation at 10 uM after 48 hrs by thioflavin-T fluorescence assay relative to control"}, "[9]": {"target": "Cholinesterase (Homo sapiens) (UniProt P06276)", "sequence (P06276 whole entry)": "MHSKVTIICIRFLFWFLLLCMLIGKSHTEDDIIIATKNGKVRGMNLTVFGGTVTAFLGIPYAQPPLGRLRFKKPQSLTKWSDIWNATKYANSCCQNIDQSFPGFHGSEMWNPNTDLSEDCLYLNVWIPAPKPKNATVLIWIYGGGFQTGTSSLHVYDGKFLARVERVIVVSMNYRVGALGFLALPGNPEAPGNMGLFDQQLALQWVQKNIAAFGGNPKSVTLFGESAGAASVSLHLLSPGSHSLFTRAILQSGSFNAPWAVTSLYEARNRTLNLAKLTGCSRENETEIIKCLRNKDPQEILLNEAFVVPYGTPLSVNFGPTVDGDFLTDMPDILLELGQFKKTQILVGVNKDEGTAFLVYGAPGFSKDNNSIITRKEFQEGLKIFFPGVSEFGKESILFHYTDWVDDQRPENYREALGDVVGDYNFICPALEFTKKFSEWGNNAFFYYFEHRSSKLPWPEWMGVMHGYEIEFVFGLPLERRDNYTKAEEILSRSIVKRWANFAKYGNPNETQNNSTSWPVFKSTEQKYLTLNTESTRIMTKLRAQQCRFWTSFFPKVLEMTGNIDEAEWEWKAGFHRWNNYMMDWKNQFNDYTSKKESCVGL", "assay": "Inhibition of human BchE (unknown origin)-induced amyloid beta (1 to 42) aggregation at 10 uM after 48 hrs by thioflavin T fluorescence method relative to control"}, "Acetylcholinesterase [10]": {"target": "T1, Acetylcholinesterase", "assay": "Inhibition of Torpedo californica AChE using acetylthiocholine iodide as substrate preincubated for 15 mins followed by substrate addition by Ellman's method", "design": "species or system Tetronarce californica"}, "Cholinesterase [11]": {"target": "T2, Cholinesterase", "assay": "Inhibition of equine serum BChE using butyrylthiocholine iodide as substrate preincubated for 15 mins followed by substrate addition by Ellman's method"}, "[12]": {"assay": "Selectivity index, ratio of IC50 for electric eel AChE to IC50 for equine serum BChE"}, "Acetylcholinesterase [13]": {"target": "T3, Acetylcholinesterase (Electrophorus electricus, UniProt O42275)", "T3 sequence (O42275 whole entry)": "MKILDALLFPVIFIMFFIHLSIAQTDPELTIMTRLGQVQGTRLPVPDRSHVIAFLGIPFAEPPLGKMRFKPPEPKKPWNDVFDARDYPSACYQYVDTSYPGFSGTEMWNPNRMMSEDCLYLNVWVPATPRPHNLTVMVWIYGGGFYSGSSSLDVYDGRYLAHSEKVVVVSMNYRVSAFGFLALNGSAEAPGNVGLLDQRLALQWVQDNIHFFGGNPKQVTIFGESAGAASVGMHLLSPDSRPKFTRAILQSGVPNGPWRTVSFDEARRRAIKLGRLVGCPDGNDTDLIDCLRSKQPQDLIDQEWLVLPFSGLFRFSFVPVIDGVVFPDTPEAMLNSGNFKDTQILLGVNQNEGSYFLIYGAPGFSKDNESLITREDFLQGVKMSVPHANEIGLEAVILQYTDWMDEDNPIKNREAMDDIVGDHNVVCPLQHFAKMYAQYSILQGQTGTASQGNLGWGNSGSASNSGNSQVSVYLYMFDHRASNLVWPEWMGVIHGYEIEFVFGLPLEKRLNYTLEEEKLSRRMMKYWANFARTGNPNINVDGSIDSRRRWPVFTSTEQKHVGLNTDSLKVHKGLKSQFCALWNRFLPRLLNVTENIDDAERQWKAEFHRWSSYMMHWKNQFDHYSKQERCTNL", "assay": "Inhibition of electric eel AChE using acetylthiocholine iodide as substrate preincubated for 15 mins followed by substrate addition measured after 15 mins by Ellman's method"}, "Cholinesterase [14]": {"target": "T2, Cholinesterase", "assay": "Inhibition of equine serum BChE using butyrylthiocholine iodide as substrate preincubated for 15 mins followed by substrate addition measured after 15 mins by Ellman's method"}, "Acetylcholinesterase [15]": {"target": "T3, Acetylcholinesterase", "assay": "Inhibition of electric eel AChE using acetylthiocholine iodide as substrate preincubated for 10 mins followed by substrate addition measured for 6 mins by Ellman's method"}, "Cholinesterase [16]": {"target": "T2, Cholinesterase", "assay": "Inhibition of equine serum BChE using butyrylthiocholine iodide as substrate preincubated for 10 mins followed by substrate addition measured for 6 mins by Ellman's method"}}}
{"compound": "Cc1ccc(C[n+]2cccc(Cn3c4c(c5ccccc53)CCCC4)c2)cc1", "values": [{"measurement": "IC50", "setting": "Acetylcholinesterase [1]", "result": 15.9, "unit": "µM"}, {"measurement": "IC50", "setting": "Cholinesterase [2]", "result": 0.088, "unit": "µM"}, {"measurement": "Ratio IC50", "setting": "[3]", "result": 181}, {"measurement": "Ratio IC50", "setting": "[4]", "result": 3.97}, {"measurement": "Ki", "setting": "Cholinesterase [5]", "result": 0.09, "unit": "µM"}, {"measurement": "viability at 10 µM", "setting": "PC-12", "result": 65, "unit": "%"}, {"measurement": "inhibition", "setting": "[6]", "result": 30, "unit": "%"}, {"measurement": "inhibition", "setting": "[7]", "result": 10, "unit": "%"}, {"measurement": "inhibition", "setting": "[8]", "result": 55.7, "unit": "%"}, {"measurement": "inhibition", "setting": "[9]", "result": 51.8, "unit": "%"}]}
{"compound": "Clc1ccccc1C[n+]1cccc(Cn2c3c(c4ccccc42)CCCC3)c1", "values": [{"measurement": "IC50", "setting": "Acetylcholinesterase [1]", "result": 36.1, "unit": "µM"}, {"measurement": "IC50", "setting": "Cholinesterase [2]", "result": 0.2, "unit": "µM"}, {"measurement": "Ratio IC50", "setting": "[3]", "result": 180}]}
{"compound": "Clc1ccc(C[n+]2ccc(Cn3c4c(c5ccccc53)CCCC4)cc2)cc1", "values": [{"measurement": "IC50", "setting": "Acetylcholinesterase [1]", "result": 25.6, "unit": "µM"}, {"measurement": "IC50", "setting": "Cholinesterase [2]", "result": 2.1, "unit": "µM"}, {"measurement": "Ratio IC50", "setting": "[3]", "result": 12.2}]}
{"compound": "Cc1ccccc1C[n+]1cccc(Cn2c3c(c4ccccc42)CCCC3)c1", "values": [{"measurement": "IC50", "setting": "Acetylcholinesterase [1]", "result": 47, "unit": "µM"}, {"measurement": "IC50", "setting": "Cholinesterase [2]", "result": 0.38, "unit": "µM"}, {"measurement": "Ratio IC50", "setting": "[3]", "result": 124}]}
{"compound": "Fc1ccccc1C[n+]1ccc(Cn2c3c(c4ccccc42)CCCC3)cc1", "values": [{"measurement": "IC50", "setting": "Acetylcholinesterase [1]", "result": 30, "unit": "µM"}, {"measurement": "IC50", "setting": "Cholinesterase [2]", "result": 0.63, "unit": "µM"}, {"measurement": "Ratio IC50", "setting": "[3]", "result": 47.6}]}
{"compound": "Cc1ccccc1C[n+]1ccc(Cn2c3c(c4ccccc42)CCCC3)cc1", "values": [{"measurement": "IC50", "setting": "Acetylcholinesterase [1]", "result": 8.4, "unit": "µM"}, {"measurement": "IC50", "setting": "Cholinesterase [2]", "result": 0.4, "unit": "µM"}, {"measurement": "Ratio IC50", "setting": "[3]", "result": 21}]}
{"compound": "c1ccc(C[n+]2cccc(Cn3c4c(c5ccccc53)CCCC4)c2)cc1", "values": [{"measurement": "IC50", "setting": "Acetylcholinesterase [1]", "result": 48.1, "unit": "µM"}, {"measurement": "IC50", "setting": "Cholinesterase [2]", "result": 0.38, "unit": "µM"}, {"measurement": "Ratio IC50", "setting": "[3]", "result": 126}]}
{"compound": "Clc1ccc(C[n+]2cccc(Cn3c4c(c5ccccc53)CCCC4)c2)cc1", "values": [{"measurement": "IC50", "setting": "Acetylcholinesterase [1]", "result": 27.3, "unit": "µM"}, {"measurement": "IC50", "setting": "Cholinesterase [2]", "result": 0.22, "unit": "µM"}, {"measurement": "Ratio IC50", "setting": "[3]", "result": 124}]}
{"compound": "Fc1cccc(C[n+]2cccc(Cn3c4c(c5ccccc53)CCCC4)c2)c1", "values": [{"measurement": "IC50", "setting": "Acetylcholinesterase [1]", "result": 77.1, "unit": "µM"}, {"measurement": "IC50", "setting": "Cholinesterase [2]", "result": 0.56, "unit": "µM"}, {"measurement": "Ratio IC50", "setting": "[3]", "result": 138}]}
{"compound": "Fc1ccccc1C[n+]1cccc(Cn2c3c(c4ccccc42)CCCC3)c1", "values": [{"measurement": "IC50", "setting": "Acetylcholinesterase [1]", "result": 67.7, "unit": "µM"}, {"measurement": "IC50", "setting": "Cholinesterase [2]", "result": 0.51, "unit": "µM"}, {"measurement": "Ratio IC50", "setting": "[3]", "result": 133}]}
{"compound": "Clc1ccccc1C[n+]1ccc(Cn2c3c(c4ccccc42)CCCC3)cc1", "values": [{"measurement": "IC50", "setting": "Acetylcholinesterase [1]", "result": 6.5, "unit": "µM"}, {"measurement": "IC50", "setting": "Cholinesterase [2]", "result": 0.29, "unit": "µM"}, {"measurement": "Ratio IC50", "setting": "[3]", "result": 22.4}]}
{"compound": "Cc1cccc(C[n+]2ccc(Cn3c4c(c5ccccc53)CCCC4)cc2)c1", "values": [{"measurement": "IC50", "setting": "Acetylcholinesterase [1]", "result": 5.1, "unit": "µM"}, {"measurement": "IC50", "setting": "Cholinesterase [2]", "result": 0.24, "unit": "µM"}, {"measurement": "Ratio IC50", "setting": "[3]", "result": 21.2}]}
{"compound": "c1ccc(C[n+]2ccc(Cn3c4c(c5ccccc53)CCCC4)cc2)cc1", "values": [{"measurement": "IC50", "setting": "Acetylcholinesterase [1]", "result": 30, "unit": "µM"}, {"measurement": "IC50", "setting": "Cholinesterase [2]", "result": 0.48, "unit": "µM"}, {"measurement": "Ratio IC50", "setting": "[3]", "result": 62.6}]}
{"compound": "Clc1cccc(C[n+]2ccc(Cn3c4c(c5ccccc53)CCCC4)cc2)c1", "values": [{"measurement": "IC50", "setting": "Acetylcholinesterase [1]", "result": 4.8, "unit": "µM"}, {"measurement": "IC50", "setting": "Cholinesterase [2]", "result": 0.26, "unit": "µM"}, {"measurement": "Ratio IC50", "setting": "[3]", "result": 18.5}]}
{"compound": "Cc1cccc(C[n+]2cccc(Cn3c4c(c5ccccc53)CCCC4)c2)c1", "values": [{"measurement": "IC50", "setting": "Acetylcholinesterase [1]", "result": 16.8, "unit": "µM"}, {"measurement": "IC50", "setting": "Cholinesterase [2]", "result": 0.11, "unit": "µM"}, {"measurement": "Ratio IC50", "setting": "[3]", "result": 153}]}
{"compound": "Clc1cccc(C[n+]2cccc(Cn3c4c(c5ccccc53)CCCC4)c2)c1", "values": [{"measurement": "IC50", "setting": "Acetylcholinesterase [1]", "result": 30, "unit": "µM"}, {"measurement": "IC50", "setting": "Cholinesterase [2]", "result": 0.25, "unit": "µM"}, {"measurement": "Ratio IC50", "setting": "[3]", "result": 120}]}
{"compound": "Fc1ccc(C[n+]2cccc(Cn3c4c(c5ccccc53)CCCC4)c2)cc1", "values": [{"measurement": "IC50", "setting": "Acetylcholinesterase [1]", "result": 71.7, "unit": "µM"}, {"measurement": "IC50", "setting": "Cholinesterase [2]", "result": 0.52, "unit": "µM"}, {"measurement": "Ratio IC50", "setting": "[3]", "result": 138}]}
{"compound": "Fc1cccc(C[n+]2ccc(Cn3c4c(c5ccccc53)CCCC4)cc2)c1", "values": [{"measurement": "IC50", "setting": "Acetylcholinesterase [1]", "result": 34.3, "unit": "µM"}, {"measurement": "IC50", "setting": "Cholinesterase [2]", "result": 0.98, "unit": "µM"}, {"measurement": "Ratio IC50", "setting": "[3]", "result": 35}]}
{"compound": "O=C1c2ccccc2C(=O)N1Cc1cc[n+](Cc2ccccc2F)cc1", "values": [{"measurement": "Ratio IC50", "setting": "[3]", "result": 11.3}, {"measurement": "IC50", "setting": "Acetylcholinesterase [10]", "result": 0.77, "unit": "µM"}, {"measurement": "IC50", "setting": "Cholinesterase [11]", "result": 8.71, "unit": "µM"}]}
{"compound": "Cc1ccc(C[n+]2ccc(Cn3c4c(c5ccccc53)CCCC4)cc2)cc1", "values": [{"measurement": "IC50", "setting": "Acetylcholinesterase [1]", "result": 14, "unit": "µM"}, {"measurement": "IC50", "setting": "Cholinesterase [2]", "result": 0.7, "unit": "µM"}, {"measurement": "Ratio IC50", "setting": "[3]", "result": 20}]}
{"compound": "O=C(NCc1cc[n+](Cc2cccc(F)c2)cc1)c1cc2ccccc2oc1=O", "values": [{"measurement": "Ratio IC50", "setting": "[12]", "result": 0.83}, {"measurement": "IC50", "setting": "Acetylcholinesterase [13]", "result": 10.1, "unit": "µM"}, {"measurement": "IC50", "setting": "Cholinesterase [14]", "result": 12.2, "unit": "µM"}]}
{"compound": "O=C1Nc2ccccc2/C1=C\\c1cc[n+](Cc2ccccc2Cl)cc1", "values": [{"measurement": "IC50", "setting": "Acetylcholinesterase [15]", "result": 0.0004, "unit": "µM"}, {"measurement": "IC50", "setting": "Cholinesterase [16]", "result": 1370, "unit": "µM"}, {"measurement": "Ratio IC50", "setting": "[12]", "result": 3110}]}
{"compound": "O=C1CCC(=O)N1Cc1cc[n+](Cc2cccc(F)c2)cc1", "values": [{"measurement": "Ratio IC50", "setting": "[3]", "result": 6.34}, {"measurement": "IC50", "setting": "Acetylcholinesterase [10]", "result": 7.19, "unit": "µM"}, {"measurement": "IC50", "setting": "Cholinesterase [11]", "result": 45.6, "unit": "µM"}]}
{"compound": "Fc1ccc(C[n+]2ccc(Cn3c4c(c5ccccc53)CCCC4)cc2)cc1", "values": [{"measurement": "IC50", "setting": "Acetylcholinesterase [1]", "result": 32.8, "unit": "µM"}, {"measurement": "IC50", "setting": "Cholinesterase [2]", "result": 0.73, "unit": "µM"}, {"measurement": "Ratio IC50", "setting": "[3]", "result": 44.9}]}
